Measured values from PMC8868508, “Kassporin-KS1: A Novel Pentadecapeptide from the Skin Secretion of Kassina senegalensis: Studies on the Structure-Activity Relationships of Site-Specific “Glycine-Lysine” Motif Insertions” (Antibiotics, 2022).
Values after ≈ are worked out from the molar mass of the structure shown. Like-named read-outs stand apart in the source and are kept apart here. Where a SMILES comes first, the peptide text is derived from it.

Assays:
S. aureus NCTC 10788 [1] = assay type: cell-based, Staphylococcus aureus
Procedure: (§1) The inhibition of representative microorganisms by peptides was evaluated by the modified broth dilution technique. The microorganisms included Candida albicans (C. albicans, NCTC 10231), Enterococcus faecalis (E. faecalis, NCTC 12697), Staphylococcus aureus (S. aureus, NCTC 10788), Klebsiella pneumoniae (K. pneumoniae, ATCC 43816), Methicillin-resistant Staphylococcus aureus (MRSA, ATCC 12493), Pseudomonas aeruginosa (P. aeruginosa, ATCC 27853), and Escherichia coli (E. coli, NCTC 10418).
(§2) Firstly, the selected microorganism was incubated in conical flasks with 100 mL Mueller Hinton broth (MHB) overnight. Then, the bacterial solution was sub-cultured in 20 mL MHB until it reached the logarithmic growth phase. Meanwhile, the peptide solution was prepared. The peptide was dissolved into 128 × 10^2 μM solution with phosphate-buffered saline (PBS) and then double-diluted into 64, 32, 16, 8, 4, 2, and 1 × 10^2 μM. Each sample solution and positive control ([…] Norfloxacin) was added to 96-well plates and divided into five replicates, 1 μL per well. The blank control was 100 µL MHB, and the growth control was 100 µL bacterial solutions. When the optical density (OD) value corresponding to the microbial concentration reached the value (Gram-positive bacteria: 0.23; Gram-negative bacteria: 0.4; fungi: 0.15) in their logarithmic growth phase, the microorganisms were diluted to the required concentration with MHB (Gram-negative and Gram-positive bacteria: 5 × 10^5 CFU/mL; fungi: 1 × 10^6 CFU/mL).
(§3) The diluted bacterial solution was then added to the 96-well plate at 99 µL per well. The plate was incubated at 37 °C and observed the next day. The MIC was the corresponding lowest peptide concentration without microbial growth. The absorbance of the 96-well plate at 550 nm was measured by Synergy HT Microplate Spectrophotometer (Biotech, Minneapolis, MN, USA), and the obtained values were quantitatively analyzed by Prism 7 software. Subsequently, the concentrations corresponding to the clear solution were removed from the 96-well plate in 10 µL and dropped onto the solidified MHA. The Petri dishes with MHA were cultured overnight, observed and the minimum peptide concentration without colonies was MBC.

E. coli NCTC 10418 = assay type: cell-based, Escherichia coli
Procedure: as §1, §2, §3

C. albicans NCTC 10231 = assay type: cell-based, Candida albicans
Procedure: as §1, §2, §3

MRSA NCTC 12493 = assay type: cell-based, Methicillin-resistant Staphylococcus aureus
K. pneumoniae ATCC 43816 = assay type: cell-based, Klebsiella pneumoniae
Procedure: as §1, §2, §3

E. faecalis NCTC 12697 = assay type: cell-based, Enterococcus faecalis
Procedure: as §1, §2, §3

P. aeruginosa ATCC 27853 = assay type: cell-based, Pseudomonas aeruginosa
Procedure: as §1, §2, §3

[2] = tested on: S. aureus NCTC 10788 biofilm; assay type: cell-based, Staphylococcus aureus; settings: NCTC 10788, 24 h
Procedure: (§4) As previously described, the MBIC and MBEC of the peptides against bacteria were determined. Staphylococcus aureus (S. aureus, NCTC 10788) and Escherichia coli (E. coli, NCTC 10418) was selected as representative strains. For the MBIC assay, the cultures were sub-cultured to their logarithmic growth phases. The diluted bacterial suspension was incubated with the peptide solution overnight in a 96-well plate. The resulting biofilm was washed with PBS solution, fixed with methanol, and dried. The biofilm was then stained with 0.1% (w/v) crystal violet, washed again with PBS, and dissolved in 30% acetic acid. The absorbance of the solution in each well at 595 nm was counted by the Synergy HT Microplate Spectrophotometer (Biotech, Minneapolis, MN, USA). Compared with the negative control, the lowest concentration that inhibits biofilm formation was MBIC. For the determination of MBEC, the diluted bacterial solution was incubated in the 96-well plate for 24 h, with 100 µL per well. Then, the biofilm was washed and re-incubated with 100 µL peptide-medium solution. After 24 h, the biofilm was again washed, stained, and dissolved as in the MBIC assay. Each well was detected at 595 nm by the same plate reader in MBIC. Compared with the negative control, the lowest concentration to eliminate biofilm was MBEC.

[3] = tested on: E. coli NCTC 10418 biofilm; assay type: cell-based, Escherichia coli; settings: NCTC 10418, 24 h
Procedure: as §4

S. aureus NCTC 10788 [4] = assay type: cell-based, Staphylococcus aureus; remark: listed apart in the source
Procedure: As mentioned in the previous study, the salt and pH sensitivities of AMPs exposed to physiological concentrations of salts or non-neutral environments were tested. MHB containing different ion concentrations (150 mM NaCl, 1 mM MgCl2, and 4 μM FeCl3) and MHB with pH 6.0 and pH 8.0 were prepared. The selected microorganism Staphylococcus aureus (S. aureus, NCTC 10788) was incubated overnight in the prepared medium, sub-cultured to the logarithmic phase, and then diluted to 5 × 10^5 CFU/mL. The subsequent steps were carried out as the MIC/MBC assay.

[5] = tested on: S. aureus infected Galleria mellonella larvae; settings: in vivo
Procedure: Galleria mellonella larvae of equal weight were injected with bacterial suspensions to observe the peptides’ efficacy. First, the wax worm larvae were weighed (Livefood UK Ltd., Rooks Bridge, UK). The appropriate weight for the assay was 250 ± 25 mg. Then, S. aureus NCTC 10788 was cultured in sterilized saline until the bacterial suspension density reached 10^8 CFU/mL. […] Then, 10 µL peptide solutions were injected into the larvae at 6, 12, and 24 mg/kg. The positive control was the dosage of 20 mg/kg Vancomycin. The negative control was the administration of saline. In total, nine wax worms were included in each group. After being injected, the number of larvae deaths was recorded every 12 h until it reached 120 h.

MIC (S. aureus NCTC 10788 [1]): 64 µM
MIC (E. coli NCTC 10418): > 128 µM
MIC (C. albicans NCTC 10231): > 128 µM
MIC (MRSA NCTC 12493): 64 µM (≈ 105 µg/mL)
MIC (K. pneumoniae ATCC 43816): > 128 µM
MIC (E. faecalis NCTC 12697): 64 µM
MIC (P. aeruginosa ATCC 27853): > 128 µM
SMILES: CC[C@H](C)[C@H](NC(=O)[C@H](C)NC(=O)[C@H](CCC(=O)O)NC(=O)[C@H](CCC(N)=O)NC(=O)[C@@H](NC(=O)[C@H](CC(C)C)NC(=O)[C@H](C)NC(=O)[C@H](CC(C)C)NC(=O)[C@H](C)NC(=O)[C@H](CC(C)C)NC(=O)[C@@H](N)Cc1ccccc1)[C@@H](C)CC)C(=O)N[C@@H](C)C(=O)N[C@@H](CCCCN)C(=O)N[C@@H](CC(C)C)C(=O)N[C@@H](CCCCN)C(N)=O [QUB-1641] (H-FLALALIQEAIAKLK-NH2)
MBC (S. aureus NCTC 10788 [1]): 64 µM
MBC (E. coli NCTC 10418): > 128 µM
MBC (C. albicans NCTC 10231): > 128 µM
MBC (MRSA NCTC 12493): 128 µM (≈ 210 µg/mL)
MBC (K. pneumoniae ATCC 43816): > 128 µM
MBC (E. faecalis NCTC 12697): 128 µM
MBC (P. aeruginosa ATCC 27853): > 128 µM
MBEC [2]: 128/>128 µM
MBIC [2]: 128/>128 µM
MBEC [3]: >128/>128 µM
MBIC [3]: >128/>128 µM
MBC (S. aureus NCTC 10788 [4]): > 128 µM
effect of injection on larvae [5]: causing the larvae to die directly after injection
